Assay: Example 7: coadministration with strong CYP3A inhibitor (itraconazole), exposure
Format: in vivo
Settings: coadministration of ripretinib with itraconazole

CCn1c(=O)c(-c2cc(NC(=O)Nc3ccccc3)c(F)cc2Br)cc2cnc(NC)cc21 [ripretinib]
Increase in AUC0-inf: 99%
Increase in Cmax: 36%
